# Data published in patent US12252524B2, “GIP/GLP1 co-agonist compounds” (Eli Lilly and Company, priority 2018, dated 2025).
# Numbered stars: 1 amine (or outer) side, 2 acyl side, 3 side chain; on linkers, the order of the positions; unused ones are H or OH. Square brackets hold non-standard residues; d marks the D form. Side chains are listed from the residue outwards. Peptide text beside a SMILES is read from it. * marks the point of attachment. C20 diacid = O=C(O)CCCCCCCCCCCCCCCCCCC(=O)*; C18 diacid = O=C(O)CCCCCCCCCCCCCCCCC(=O)*; γGlu = O=C(O)[C@H](CCC(=O)[*:2])N[*:1]; AEEA = NCCOCCOCC(=O)O; Aib = CC(C)(N)C(=O)O
# Legend:
# [1] = target: T1, gastric inhibitory peptide receptor (GIPR) (Homo sapiens, UniProt P48546); assay: cAMP pharmacological functional assay in presence of casein, hGIPR; assay type: cell-based; settings: HEK293 cells expressing hGIPR, 0.1% Casein, geometric mean; read-out: hGIPR cAMP Rel EC50 nM (SEM, n)
# T1 sequence (P48546 22-466): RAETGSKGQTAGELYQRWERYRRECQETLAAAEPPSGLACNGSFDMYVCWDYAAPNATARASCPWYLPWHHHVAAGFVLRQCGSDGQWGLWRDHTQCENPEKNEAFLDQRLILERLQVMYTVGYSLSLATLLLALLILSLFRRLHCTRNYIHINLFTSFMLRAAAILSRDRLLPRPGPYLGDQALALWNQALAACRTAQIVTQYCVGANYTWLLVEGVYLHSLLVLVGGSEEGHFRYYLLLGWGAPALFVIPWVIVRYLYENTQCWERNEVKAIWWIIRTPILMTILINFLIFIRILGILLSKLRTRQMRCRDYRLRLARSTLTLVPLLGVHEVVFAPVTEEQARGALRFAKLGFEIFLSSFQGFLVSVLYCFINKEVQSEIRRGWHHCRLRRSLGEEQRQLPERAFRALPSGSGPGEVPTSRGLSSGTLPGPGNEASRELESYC
# [2] = target: human GLP-1 receptor (GLP-1R) (Homo sapiens, UniProt P43220); assay: cAMP pharmacological functional assay in presence of casein, hGLP-1R; assay type: cell-based; settings: HEK293 cells expressing hGLP-1R, 0.1% Casein, geometric mean; read-out: hGLP1R cAMP Rel EC50 nM (SEM, n)
# human GLP-1 receptor (GLP-1R), sequence (P43220 24-463): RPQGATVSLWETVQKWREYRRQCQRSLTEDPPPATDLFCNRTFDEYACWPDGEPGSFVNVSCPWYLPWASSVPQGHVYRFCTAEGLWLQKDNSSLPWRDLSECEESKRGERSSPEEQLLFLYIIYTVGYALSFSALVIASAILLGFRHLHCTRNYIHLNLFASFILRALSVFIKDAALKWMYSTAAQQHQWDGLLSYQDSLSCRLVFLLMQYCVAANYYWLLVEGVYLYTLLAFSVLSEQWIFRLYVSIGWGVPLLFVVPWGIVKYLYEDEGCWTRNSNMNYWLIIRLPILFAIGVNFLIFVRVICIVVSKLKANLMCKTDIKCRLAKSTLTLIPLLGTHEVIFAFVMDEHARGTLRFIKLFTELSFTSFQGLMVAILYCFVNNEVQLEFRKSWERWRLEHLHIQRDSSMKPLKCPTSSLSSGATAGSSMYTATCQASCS
Structure (SMILES),EC50 [1],EC50 [2]
CC[C@H](C)[C@H](NC(=O)[C@H](CC(C)C)NC(=O)[C@H](Cc1ccc(O)cc1)NC(=O)[C@H](CCC(=O)O)NC(=O)[C@@H](NC(=O)[C@H](Cc1ccccc1)NC(=O)[C@H](C)NC(=O)[C@H](CCC(=O)O)NC(=O)[C@H](CCC(N)=O)NC(=O)[C@H](C)NC(=O)[C@H](CCCCNC(=O)COCCOCCNC(=O)COCCOCCNC(=O)CC[C@H](NC(=O)CCCCCCCCCCCCCCCCCCC(=O)O)C(=O)O)NC(=O)[C@H](CCCCN)NC(=O)[C@H](CC(=O)O)NC(=O)[C@H](CC(C)C)NC(=O)[C@H](CC(C)C)NC(=O)[C@@H](NC(=O)[C@H](CO)NC(=O)[C@H](Cc1ccc(O)cc1)NC(=O)[C@H](CC(=O)O)NC(=O)[C@H](CO)NC(=O)[C@@H](NC(=O)[C@H](Cc1ccccc1)NC(=O)[C@@H](NC(=O)CNC(=O)[C@H](CCC(=O)O)NC(=O)C(C)(C)NC(=O)[C@@H](N)Cc1ccc(O)cc1)[C@@H](C)O)[C@@H](C)O)[C@@H](C)CC)[C@@H](C)CC)C(=O)N[C@@H](CCC(=O)O)C(=O)NCC(=O)NCC(=O)N1CCC[C@H]1C(=O)N[C@@H](CO)C(=O)N[C@@H](CO)C(=O)NCC(=O)N[C@@H](C)C(=O)N1CCC[C@H]1C(=O)N1CCC[C@H]1C(=O)N1CCC[C@H]1C(=O)N[C@@H](CO)C(N)=O [Example 261] (H-Y[Aib]EGTFTSDYSILLDKK([AEEA-AEEA-γGlu-C20 diacid])AQEAFIEYLIEGGPSSGAPPPS-NH2),0.16 nM,0.0948 nM
CC[C@H](C)[C@H](NC(=O)[C@H](CC(C)C)NC(=O)[C@H](Cc1ccc(O)cc1)NC(=O)[C@H](CCC(=O)O)NC(=O)[C@@H](NC(=O)[C@H](Cc1ccccc1)NC(=O)[C@H](C)NC(=O)[C@@H](NC(=O)[C@H](CCC(N)=O)NC(=O)[C@H](C)NC(=O)[C@H](CCCCNC(=O)COCCOCCNC(=O)COCCOCCNC(=O)CC[C@H](NC(=O)CCCCCCCCCCCCCCCCCCC(=O)O)C(=O)O)NC(=O)[C@H](CCCCN)NC(=O)[C@H](CC(=O)O)NC(=O)[C@H](CC(C)C)NC(=O)[C@H](CC(C)C)NC(=O)[C@@H](NC(=O)[C@H](CO)NC(=O)[C@H](Cc1ccc(O)cc1)NC(=O)[C@H](CC(=O)O)NC(=O)[C@H](CO)NC(=O)[C@@H](NC(=O)[C@H](Cc1ccccc1)NC(=O)[C@@H](NC(=O)CNC(=O)[C@H](CCC(=O)O)NC(=O)C(C)(C)NC(=O)[C@@H](N)Cc1ccc(O)cc1)[C@@H](C)O)[C@@H](C)O)[C@@H](C)CC)[C@@H](C)O)[C@@H](C)CC)C(=O)N[C@@H](CCC(=O)O)C(=O)NCC(=O)NCC(=O)N1CCC[C@H]1C(=O)N[C@@H](CO)C(=O)N[C@@H](CO)C(=O)NCC(=O)N[C@@H](C)C(=O)N1CCC[C@H]1C(=O)N1CCC[C@H]1C(=O)N1CCC[C@H]1C(=O)N[C@@H](CO)C(N)=O [Example 262] (H-Y[Aib]EGTFTSDYSILLDKK([AEEA-AEEA-γGlu-C20 diacid])AQTAFIEYLIEGGPSSGAPPPS-NH2),0.13 nM,0.0943 nM
CC[C@H](C)[C@H](NC(=O)[C@H](CC(C)C)NC(=O)[C@H](Cc1ccc(O)cc1)NC(=O)[C@H](CCC(=O)O)NC(=O)[C@@H](NC(=O)[C@H](Cc1ccccc1)NC(=O)[C@H](C)NC(=O)[C@H](CO)NC(=O)[C@H](CCC(N)=O)NC(=O)[C@H](C)NC(=O)[C@H](CCCCNC(=O)COCCOCCNC(=O)COCCOCCNC(=O)CC[C@H](NC(=O)CCCCCCCCCCCCCCCCCCC(=O)O)C(=O)O)NC(=O)[C@H](CCCCN)NC(=O)[C@H](CC(=O)O)NC(=O)[C@H](CC(C)C)NC(=O)[C@H](CC(C)C)NC(=O)[C@@H](NC(=O)[C@H](CO)NC(=O)[C@H](Cc1ccc(O)cc1)NC(=O)[C@H](CC(=O)O)NC(=O)[C@H](CO)NC(=O)[C@@H](NC(=O)[C@H](Cc1ccccc1)NC(=O)[C@@H](NC(=O)CNC(=O)[C@H](CCC(=O)O)NC(=O)C(C)(C)NC(=O)[C@@H](N)Cc1ccc(O)cc1)[C@@H](C)O)[C@@H](C)O)[C@@H](C)CC)[C@@H](C)CC)C(=O)N[C@@H](CCC(=O)O)C(=O)NCC(=O)NCC(=O)N1CCC[C@H]1C(=O)N[C@@H](CO)C(=O)N[C@@H](CO)C(=O)NCC(=O)N[C@@H](C)C(=O)N1CCC[C@H]1C(=O)N1CCC[C@H]1C(=O)N1CCC[C@H]1C(=O)N[C@@H](CO)C(N)=O [Example 263] (H-Y[Aib]EGTFTSDYSILLDKK([AEEA-AEEA-γGlu-C20 diacid])AQSAFIEYLIEGGPSSGAPPPS-NH2),0.317 nM,0.0785 nM
CC[C@H](C)[C@H](NC(=O)[C@H](CC(C)C)NC(=O)[C@H](Cc1ccc(O)cc1)NC(=O)[C@H](CCC(=O)O)NC(=O)[C@@H](NC(=O)[C@H](Cc1ccccc1)NC(=O)[C@H](C)NC(=O)[C@@H]1CCCN1C(=O)[C@H](CCC(N)=O)NC(=O)[C@H](C)NC(=O)[C@H](CCCCNC(=O)COCCOCCNC(=O)COCCOCCNC(=O)CC[C@H](NC(=O)CCCCCCCCCCCCCCCCC(=O)O)C(=O)O)NC(=O)[C@H](CCCCN)NC(=O)[C@H](CC(=O)O)NC(=O)[C@H](CC(C)C)NC(=O)[C@H](CC(C)C)NC(=O)[C@@H](NC(=O)[C@H](CO)NC(=O)[C@H](Cc1ccc(O)cc1)NC(=O)[C@H](CC(=O)O)NC(=O)[C@H](CO)NC(=O)[C@@H](NC(=O)[C@H](Cc1ccccc1)NC(=O)[C@@H](NC(=O)CNC(=O)[C@H](CCC(=O)O)NC(=O)C(C)(C)NC(=O)[C@@H](N)Cc1ccc(O)cc1)[C@@H](C)O)[C@@H](C)O)[C@@H](C)CC)[C@@H](C)CC)C(=O)N[C@@H](CCC(=O)O)C(=O)NCC(=O)NCC(=O)N1CCC[C@H]1C(=O)N[C@@H](CO)C(=O)N[C@@H](CO)C(=O)NCC(N)=O [Example 274] (H-Y[Aib]EGTFTSDYSILLDKK([AEEA-AEEA-γGlu-C18 diacid])AQPAFIEYLIEGGPSSG-NH2),> 30 nM,14.5 nM
CC[C@H](C)[C@H](NC(=O)[C@H](CC(C)C)NC(=O)[C@H](Cc1ccc(O)cc1)NC(=O)[C@H](CCC(=O)O)NC(=O)[C@@H](NC(=O)[C@H](Cc1ccccc1)NC(=O)[C@H](C)NC(=O)[C@@H]1CCCN1C(=O)[C@H](CCC(N)=O)NC(=O)[C@H](C)NC(=O)[C@H](CCCCNC(=O)COCCOCCNC(=O)COCCOCCNC(=O)CC[C@H](NC(=O)CCCCCCCCCCCCCCCCC(=O)O)C(=O)O)NC(=O)[C@H](CCCCN)NC(=O)[C@H](CC(=O)O)NC(=O)[C@H](CC(C)C)NC(=O)[C@H](CC(C)C)NC(=O)[C@@H](NC(=O)[C@H](CO)NC(=O)[C@H](Cc1ccc(O)cc1)NC(=O)[C@H](CC(=O)O)NC(=O)[C@H](CO)NC(=O)[C@@H](NC(=O)[C@H](Cc1ccccc1)NC(=O)[C@@H](NC(=O)CNC(=O)[C@H](CCC(=O)O)NC(=O)C(C)(C)NC(=O)[C@@H](N)Cc1ccc(O)cc1)[C@@H](C)O)[C@@H](C)O)[C@@H](C)CC)[C@@H](C)CC)C(=O)N[C@@H](CCC(=O)O)C(=O)NCC(=O)NCC(N)=O [Example 275] (H-Y[Aib]EGTFTSDYSILLDKK([AEEA-AEEA-γGlu-C18 diacid])AQPAFIEYLIEGG-NH2),> 30 nM,14 nM
